# From PubChem BioAssay AID1963873 (Molecular Pharmacology Branch, DTP, NCI, 2024)
# pIC50: −log10 of the molar value.
# Test system: 276233-004-R-J1-PDC KRAS spheroids with HUVEC/MSC, viability
# Test: Anticancer human tumor 276233-004-R-J1-PDC patient-derived colon adenocarcinoma cell line growth inhibition [KRAS2]
# Conditions: for viability, T/C: stronger effect = lower value
# Procedure, shortened: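 Combination screen of spheroid viability in tumor-cell co-cultures with endothelial (HUVEC) and mesenchymal stem cell stroma. Each agent was tested in half-log dilutions, topping at clinical Cmax or at 10 microM without a known Cmax.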
# [1] = curve of first compound, second compound 0.1 µM
# [2] = curve of first compound, second compound 0.316 µM
# [3] = curve of first compound, second compound 1 µM
# [4] = curve of first compound, second compound 3.16 µM
# [5] = curve of first compound, second compound 10 µM
# [6] = second compound 0.1 µM, first compound 0.0316 µM
# [7] = second compound 0.1 µM, first compound 0.1 µM
# [8] = second compound 0.1 µM, first compound 0.316 µM
# [9] = second compound 0.1 µM, first compound 1 µM
# [10] = second compound 0.1 µM, first compound 3.16 µM
# [11] = second compound 0.1 µM, first compound 10 µM
# [12] = second compound 0.316 µM, first compound 0.0316 µM
# [13] = second compound 0.316 µM, first compound 0.1 µM
# [14] = second compound 0.316 µM, first compound 0.316 µM
# [15] = second compound 0.316 µM, first compound 1 µM
# [16] = second compound 0.316 µM, first compound 3.16 µM
# [17] = second compound 0.316 µM, first compound 10 µM
# [18] = second compound 1 µM, first compound 0.0316 µM
# [19] = second compound 1 µM, first compound 0.1 µM
# [20] = second compound 1 µM, first compound 0.316 µM
# [21] = second compound 1 µM, first compound 1 µM
# [22] = second compound 1 µM, first compound 3.16 µM
# [23] = second compound 1 µM, first compound 10 µM
# [24] = second compound 3.16 µM, first compound 0.0316 µM
# [25] = second compound 3.16 µM, first compound 0.1 µM
# [26] = second compound 3.16 µM, first compound 0.316 µM
# [27] = second compound 3.16 µM, first compound 1 µM
# [28] = second compound 3.16 µM, first compound 3.16 µM
# [29] = second compound 3.16 µM, first compound 10 µM
# [30] = second compound 10 µM, first compound 0.0316 µM
# [31] = second compound 10 µM, first compound 0.1 µM
# [32] = second compound 10 µM, first compound 0.316 µM
# [33] = second compound 10 µM, first compound 1 µM
# [34] = second compound 10 µM, first compound 3.16 µM
# [35] = second compound 10 µM, first compound 10 µM
# [36] = second compound 0.1 µM, first compound 0.000316 µM
# [37] = second compound 0.1 µM, first compound 0.001 µM
# [38] = second compound 0.1 µM, first compound 0.00316 µM
# [39] = second compound 0.1 µM, first compound 0.01 µM
# [40] = second compound 0.316 µM, first compound 0.000316 µM
# [41] = second compound 0.316 µM, first compound 0.001 µM
# [42] = second compound 0.316 µM, first compound 0.00316 µM
# [43] = second compound 0.316 µM, first compound 0.01 µM
# [44] = second compound 1 µM, first compound 0.000316 µM
# [45] = second compound 1 µM, first compound 0.001 µM
# [46] = second compound 1 µM, first compound 0.00316 µM
# [47] = second compound 1 µM, first compound 0.01 µM
# [48] = second compound 3.16 µM, first compound 0.000316 µM
# [49] = second compound 3.16 µM, first compound 0.001 µM
# [50] = second compound 3.16 µM, first compound 0.00316 µM
# [51] = second compound 3.16 µM, first compound 0.01 µM
# [52] = second compound 10 µM, first compound 0.000316 µM
# [53] = second compound 10 µM, first compound 0.001 µM
# [54] = second compound 10 µM, first compound 0.00316 µM
# [55] = second compound 10 µM, first compound 0.01 µM
# 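Also: cells exposed to agents for seven days before viability read.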
# 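For viability, T/C in this document: 100% = DMSO vehicle control wells and lower values mean fewer viable cells.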
structure (smiles),measurement,setting,value
COc1cc(Nc2ncc3c(n2)-c2ccc(Cl)cc2C(c2c(F)cccc2OC)=NC3)ccc1C(=O)O + C=CC(=O)N1CCN(c2nc(=O)n(-c3c(C)ccnc3C(C)C)c3nc(-c4c(O)cccc4F)c(F)cc23)C(C)C1,pIC50,[1],< 5.00
same,pIC50,[2],< 5.00
same,pIC50,[3],< 5.00
same,pIC50,[4],< 5.00
same,pIC50,[5],< 5.00
same,"viability, T/C",[6],132%
same,"viability, T/C",[7],118%
same,"viability, T/C",[8],117%
same,"viability, T/C",[9],104%
same,"viability, T/C",[10],116%
same,"viability, T/C",[11],88.3%
same,"viability, T/C",[12],112%
same,"viability, T/C",[13],110%
same,"viability, T/C",[14],117%
same,"viability, T/C",[15],111%
same,"viability, T/C",[16],99%
same,"viability, T/C",[17],97%
same,"viability, T/C",[18],102%
same,"viability, T/C",[19],118%
same,"viability, T/C",[20],108%
same,"viability, T/C",[21],115%
same,"viability, T/C",[22],110%
same,"viability, T/C",[23],96.5%
same,"viability, T/C",[24],139%
same,"viability, T/C",[25],125%
same,"viability, T/C",[26],110%
same,"viability, T/C",[27],105%
same,"viability, T/C",[28],96.3%
same,"viability, T/C",[29],89.1%
same,"viability, T/C",[30],88.3%
same,"viability, T/C",[31],107%
same,"viability, T/C",[32],87.4%
same,"viability, T/C",[33],91.6%
same,"viability, T/C",[34],79.3%
same,"viability, T/C",[35],86.5%
Cn1nccc1Nc1nccc(-c2cc3c(s2)C(C)(C)N(CCN2CCOCC2)C3=O)n1 + CC1OCC2(CCN(c3cnc(Sc4ccnc(N)c4Cl)c(N)n3)CC2)C1N,pIC50,[1],5.64
same,pIC50,[2],6.08
same,pIC50,[3],6.32
same,pIC50,[4],6.49
same,pIC50,[5],> 7.50
same,"viability, T/C",[6],86.9%
same,"viability, T/C",[7],82.3%
same,"viability, T/C",[8],76.8%
same,"viability, T/C",[9],70.3%
same,"viability, T/C",[10],37.7%
same,"viability, T/C",[11],47%
same,"viability, T/C",[12],79.6%
same,"viability, T/C",[13],76.5%
same,"viability, T/C",[14],65.5%
same,"viability, T/C",[15],47.2%
same,"viability, T/C",[16],33.1%
same,"viability, T/C",[17],28.8%
same,"viability, T/C",[18],78.5%
same,"viability, T/C",[19],73.2%
same,"viability, T/C",[20],56.2%
same,"viability, T/C",[21],38%
same,"viability, T/C",[22],26%
same,"viability, T/C",[23],22.2%
same,"viability, T/C",[24],60.7%
same,"viability, T/C",[25],62.3%
same,"viability, T/C",[26],49.4%
same,"viability, T/C",[27],30.3%
same,"viability, T/C",[28],19.7%
same,"viability, T/C",[29],16.4%
same,"viability, T/C",[30],48.4%
same,"viability, T/C",[31],38.2%
same,"viability, T/C",[32],32.1%
same,"viability, T/C",[33],23.5%
same,"viability, T/C",[34],19%
same,"viability, T/C",[35],16.9%
CC(C)n1nc(-c2ccc3oc(N)nc3c2)c2c(N)ncnc21 + COc1cc2nc(C)nc(NC(C)c3cc(N)cc(C(F)(F)F)c3)c2cc1OC1CCOC1,pIC50,[1],< 7.00
same,pIC50,[2],< 7.00
same,pIC50,[3],7.37
same,pIC50,[4],< 7.00
same,pIC50,[5],> 9.50
same,"viability, T/C",[36],90.1%
same,"viability, T/C",[37],120%
same,"viability, T/C",[38],76.7%
same,"viability, T/C",[39],68%
same,"viability, T/C",[6],64.7%
same,"viability, T/C",[7],50.8%
same,"viability, T/C",[40],109%
same,"viability, T/C",[41],86.3%
same,"viability, T/C",[42],71.6%
same,"viability, T/C",[43],70.9%
same,"viability, T/C",[12],68%
same,"viability, T/C",[13],56.5%
same,"viability, T/C",[44],108%
same,"viability, T/C",[45],92.5%
same,"viability, T/C",[46],86.5%
same,"viability, T/C",[47],56.8%
same,"viability, T/C",[18],54.5%
same,"viability, T/C",[19],46%
same,"viability, T/C",[48],76.7%
same,"viability, T/C",[49],83.4%
same,"viability, T/C",[50],76.4%
same,"viability, T/C",[51],61.9%
same,"viability, T/C",[24],63.2%
same,"viability, T/C",[25],50.3%
same,"viability, T/C",[52],18.3%
same,"viability, T/C",[53],22.9%
same,"viability, T/C",[54],19.1%
same,"viability, T/C",[55],32.5%
same,"viability, T/C",[30],32.2%
same,"viability, T/C",[31],29.3%
COc1cc(Nc2ncc3c(n2)-c2ccc(Cl)cc2C(c2c(F)cccc2OC)=NC3)ccc1C(=O)O,"viability, T/C",compound 0.1 µM,99.8% [middle of 5 runs]
same,"viability, T/C",compound 0.316 µM,93.1% [middle of 5 runs]
same,"viability, T/C",compound 1 µM,87.7% [middle of 5 runs]
same,"viability, T/C",compound 3.16 µM,95.5% [middle of 5 runs]
same,pIC50,curve of compound,< 5.00
CC(C)n1nc(-c2ccc3oc(N)nc3c2)c2c(N)ncnc21 + C=CC(=O)N1CCN(c2nc(=O)n(-c3c(C)ccnc3C(C)C)c3nc(-c4c(O)cccc4F)c(F)cc23)C(C)C1,pIC50,[1],< 7.00
same,pIC50,[2],7.57
same,pIC50,[3],7.53
same,pIC50,[4],< 7.00
same,pIC50,[5],< 7.00
same,"viability, T/C",[36],88.4%
same,"viability, T/C",[37],91.7%
same,"viability, T/C",[38],64.8%
same,"viability, T/C",[39],63.4%
same,"viability, T/C",[6],50.8%
same,"viability, T/C",[7],56.2%
same,"viability, T/C",[40],105%
same,"viability, T/C",[41],94.3%
same,"viability, T/C",[42],76.6%
same,"viability, T/C",[43],57.2%
same,"viability, T/C",[12],45.4%
same,"viability, T/C",[13],49.8%
same,"viability, T/C",[44],94.4%
same,"viability, T/C",[45],86.8%
same,"viability, T/C",[46],105%
same,"viability, T/C",[47],64.2%
same,"viability, T/C",[18],48.4%
same,"viability, T/C",[19],49.7%
same,"viability, T/C",[48],87%
same,"viability, T/C",[49],80.4%
same,"viability, T/C",[50],75.8%
same,"viability, T/C",[51],59.2%
same,"viability, T/C",[24],51%
same,"viability, T/C",[25],51.5%
same,"viability, T/C",[52],88.2%
same,"viability, T/C",[53],84.9%
same,"viability, T/C",[54],67.8%
same,"viability, T/C",[55],72%
same,"viability, T/C",[30],54.9%
same,"viability, T/C",[31],58%
COc1cc2nccc(Oc3ccc(NC(=O)C4(C(=O)Nc5ccc(F)cc5)CC4)cc3)c2cc1OC + CNCc1ccccc1-c1csc(C(C)Nc2nc(C)nc3cc(OC)c(OC)cc23)c1,pIC50,[1],< 5.00
same,pIC50,[2],< 5.00
same,pIC50,[3],6.23
same,pIC50,[4],> 7.50
same,pIC50,[5],> 7.50
same,"viability, T/C",[6],82.3%
same,"viability, T/C",[7],109%
same,"viability, T/C",[8],82.8%
same,"viability, T/C",[9],88.3%
same,"viability, T/C",[10],80.9%
same,"viability, T/C",[11],88.2%
same,"viability, T/C",[12],83.3%
same,"viability, T/C",[13],85%
same,"viability, T/C",[14],85.8%
same,"viability, T/C",[15],109%
same,"viability, T/C",[16],83.2%
same,"viability, T/C",[17],67.2%
same,"viability, T/C",[18],74.8%
same,"viability, T/C",[19],58.8%
same,"viability, T/C",[20],68.7%
same,"viability, T/C",[21],35.6%
same,"viability, T/C",[22],15%
same,"viability, T/C",[23],41.5%
same,"viability, T/C",[24],0.61%
same,"viability, T/C",[25],2.67%
same,"viability, T/C",[26],0.63%
same,"viability, T/C",[27],0.45%
same,"viability, T/C",[28],0.77%
same,"viability, T/C",[29],0.33%
same,"viability, T/C",[30],0.64%
same,"viability, T/C",[31],0.19%
same,"viability, T/C",[32],0.57%
same,"viability, T/C",[33],0.15%
same,"viability, T/C",[34],0.14%
same,"viability, T/C",[35],1.46%
CC(=O)Nc1cccc(-n2c(=O)n(C3CC3)c(=O)c3c(Nc4ccc(I)cc4F)n(C)c(=O)c(C)c32)c1,"viability, T/C",compound 0.0001 µM,95.5% [middle of 5 runs]
same,"viability, T/C",compound 0.000316 µM,85.5% [middle of 5 runs]
same,"viability, T/C",compound 0.00316 µM,68.5% [middle of 5 runs]
same,"viability, T/C",compound 0.01 µM,54.7% [middle of 5 runs]
same,"viability, T/C",compound 0.0316 µM,21.5% [middle of 5 runs]
same,IC50,curve of compound,9.31 nM [middle of 5 runs]
COC(=O)c1ccc2c(C(=Nc3ccc(N(C)C(=O)CN4CCN(C)CC4)cc3)c3ccccc3)c(O)[nH]c2c1,"viability, T/C",compound 0.0316 µM,93.3% [middle of 5 runs]
same,"viability, T/C",compound 0.1 µM,90.3% [middle of 5 runs]
same,"viability, T/C",compound 0.316 µM,81.9% [middle of 5 runs]
same,"viability, T/C",compound 1 µM,86.2% [middle of 5 runs]
same,pIC50,curve of compound,< 5.00
